Columns and labels:
Experiment in all cases: relative viability (nuclei count vs DMSO), 5 days (fraction); higher = more cells survive
[1] = compound: CC1=CC(=CC=C1)NC2=NC(=CS2)C3=CC=NC=C3 + CC1(C)CCC(c2ccc(Cl)cc2)=C(CN2CCN(c3ccc(C(=O)NS(=O)(=O)c4ccc(N[C@H](CCN5CCOCC5)CSc5ccccc5)c(S(=O)(=O)C(F)(F)F)c4)cc3)CC2)C1 [Navitoclax] (partner 0.5 µM)
Method in brief: (§1)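 Relative viability is defined as nuclei in treated wells over nuclei in vehicle wells. Duplicate plates were run and medians reported. Lung cancer cell lines in 1536-well plates were dosed by pin tool one day after seeding, with one drug or with a fixed anchor-drug dose plus five library-drug doses (not always all listed) in √10 steps, and nuclei were counted after 5 days.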

[2] = compound: CC1=CC(=CC=C1)NC2=NC(=CS2)C3=CC=NC=C3 + CS(=O)(=O)CCNCc1ccc(-c2ccc3ncnc(Nc4ccc(OCc5cccc(F)c5)c(Cl)c4)c3c2)o1 [Lapatinib] (partner 2 µM)
Method in brief: as §1

Masitinib + Luminespib = compound: Cc1ccc(NC(=O)c2ccc(CN3CCN(C)CC3)cc2)cc1Nc1nc(-c2cccnc2)cs1 [Masitinib] + CCNC(=O)c1noc(-c2cc(C(C)C)c(O)cc2O)c1-c1ccc(CN2CCOCC2)cc1 [Luminespib] (partner 0.01 µM)
Method in brief: as §1

Masitinib + Dasatinib = compound: Cc1ccc(NC(=O)c2ccc(CN3CCN(C)CC3)cc2)cc1Nc1nc(-c2cccnc2)cs1 [Masitinib] + Cc1nc(Nc2ncc(C(=O)Nc3c(C)cccc3Cl)s2)cc(N2CCN(CCO)CC2)n1 [Dasatinib] (partner 0.075 µM)
Method in brief: as §1

Cell Line | relative viability ([1]; first compound 0.08 µM) | relative viability ([1]; first compound 0.253 µM) | relative viability ([1]; first compound 0.8 µM) | relative viability ([1]; first compound 2.53 µM) | relative viability ([1]; first compound 8 µM) | relative viability ([2]; first compound 0.08 µM) | relative viability ([2]; first compound 0.8 µM) | relative viability ([2]; first compound 2.53 µM) | relative viability ([2]; first compound 8 µM) | relative viability (Masitinib + Luminespib; first compound 0.01 µM) | relative viability (Masitinib + Luminespib; first compound 0.03162 µM) | relative viability (Masitinib + Luminespib; first compound 0.1 µM) | relative viability (Masitinib + Luminespib; first compound 0.3162 µM) | relative viability (Masitinib + Luminespib; first compound 1 µM) | relative viability (Masitinib + Dasatinib; first compound 0.01 µM) | relative viability (Masitinib + Dasatinib; first compound 0.03162 µM) | relative viability (Masitinib + Dasatinib; first compound 0.1 µM) | relative viability (Masitinib + Dasatinib; first compound 0.3162 µM) | relative viability (Masitinib + Dasatinib; first compound 1 µM) | relative viability ([2]; first compound 0.253 µM)
CAL-12T | 1.19 | 1.06 | 1.16 | 1.05 | 1.24 | 0.534 | 0.649 | 0.608 | 0.678 | 0.513 | 0.403 | 0.363 | 0.469 | 0.306 | 0.452 | 0.381 | 0.34 | 0.306 | 0.374 | –
EKVX | 0.901 | 0.837 | 0.676 | 0.923 | 0.98 | 0.182 | 0.206 | 0.163 | 0.171 | – | 0.997 | 0.599 | 0.93 | 0.786 | 0.557 | 0.387 | 0.535 | 0.464 | 0.41 | 0.189
NCI-H1666 | 0.82 | 0.818 | 0.535 | 0.578 | 0.417 | 0.245 | 0.256 | 0.283 | 0.241 | – | 1.05 | 1.1 | 1.03 | 1.01 | – | 0.713 | 0.858 | 0.818 | 0.817 | 0.24
NCI-H2170 | 0.631 | 0.575 | 0.538 | 0.545 | 0.426 | 0.259 | 0.255 | 0.275 | 0.264 | 0.645 | 0.689 | 1.02 | 0.631 | 1.02 | 0.5 | 0.473 | 0.547 | 0.56 | 0.519 | 0.255
NCI-H1734 | 0.835 | 0.834 | 0.827 | 0.869 | 0.698 | 0.896 | 1.04 | 0.932 | 0.928 | 0.194 | 0.195 | 0.188 | 0.187 | 0.172 | 0.449 | 0.521 | 0.508 | 0.518 | 0.416 | 1.02
A-427 | 0.955 | 0.962 | 0.899 | – | 0.875 | 0.972 | 1.03 | – | 0.892 | – | 1.1 | 1.13 | 0.814 | 1.18 | – | 0.726 | – | 0.802 | 0.695 | 1.09
NCI-H2405 | 0.732 | 0.802 | 0.655 | 0.883 | 0.673 | 0.853 | 0.919 | 0.936 | 0.813 | 0.606 | 0.64 | 0.692 | 0.521 | 0.571 | 0.2 | 0.214 | 0.213 | 0.238 | 0.193 | 1
NCI-H1437 | 1.04 | 1.06 | 1.04 | 1.13 | 0.96 | 0.772 | 0.684 | 0.479 | 0.545 | 1.15 | 1.19 | 1.16 | 1.18 | 1.14 | 0.457 | 0.396 | 0.454 | 0.527 | 0.387 | 0.626

— the supplement of paper PMC10307832
